# Reference: patent publication US4521598A, “3-Azidocephalosporins” (priority 1983, dated 1985)
# Structures can show the parent of a compound that is named as a salt. Where two headings read alike, the source gives them in different places.
# What was measured:
# Proteus vulgaris = experiment: Disc plate assay, zone of inhibition; type: cell-based
# Streptococcus sp. D = experiment: Agar dilution method, MIC; type: cell-based
# Klebsiella pneumoniae = experiment: Agar dilution method, MIC; type: cell-based
# Enterobacter aerogenes = experiment: Agar dilution method, MIC; type: cell-based
# Pseudomonas solanacearum = experiment: microbe, parasite or virus in culture; type: cell-based; settings: Ralstonia solanacearum; for zone of inhibition at 3000 µg/mL: read-out: Zone of Inhibition (mm. diam.)
# Pseudomonas = experiment: Agar dilution method, MIC; type: cell-based; settings: strains of Pseudomonas
# Staphylococcus aureus [1] = experiment: Agar dilution method, MIC; type: cell-based
# Bacillus subtilis = experiment: Disc plate assay, zone of inhibition; type: cell-based; settings: for zone of inhibition at 3000 µg/mL: read-out: Zone of Inhibition (mm. diam.)
# [2] = tested on: Trichophyton mentagrophytes; experiment: Disc plate assay, zone of inhibition; type: cell-based
# Description: (§1) The 7-acylamino-3-azido-3-cephem-4-carboxylic acids and the salts thereof inhibit the growth of bacteria pathogenic to man and animals. […] For example, 7β-(2-thienylacetamido)-3-azido-3-cephem-4-carboxylic acid inhibited the growth of various organisms as shown in the following Table 1.
# (§2) ^1 concentration 1 mg./ml.
# (§3) The 3-amino-2-substituted-3-cephem compounds (formula 5) as the free acids or salts thereof and the bicyclo nonenes (formula 6) as the free acids or salts thereof are antibacterial agents which inhibit the growth of bacteria pathogenic to man and animals. In Table 3 below the in vitro antibacterial properties of the three isomeric products represented by formulae 5 and 6 obtained in the disc-plate method is tabulated.
# Candida albicans = experiment: Disc plate assay, zone of inhibition; type: cell-based
# Description: as §1, §2, §3
# Streptococcus pyogenes = experiment: Agar dilution method, MIC; type: cell-based; settings: strain C203
# Streptococcus pneumoniae = experiment: Agar dilution method, MIC; type: cell-based; settings: strain Park
# Enterobacter cloacae = experiment: Agar dilution method, MIC; type: cell-based
# Escherichia coli [3] = experiment: Disc plate assay, zone of inhibition; type: cell-based; settings: for zone of inhibition at 3000 µg/mL: read-out: Zone of Inhibition (mm. diam.)
# [4] = tested on: Streptococcus epidermidis; experiment: Agar dilution method, MIC; type: cell-based
# Pseudomonas aeruginosa = experiment: Disc plate assay, zone of inhibition; type: cell-based; settings: concentration 1 mg./ml.
# Description: as §1, §2
# Salmonella gallinarum = experiment: Disc plate assay, zone of inhibition; type: cell-based; settings: Salmonella enterica, concentration 1 mg./ml.
# Description: as §1, §2
# [5] = tested on: Saccharomyces postorianus; experiment: Disc plate assay, zone of inhibition; type: cell-based; settings: concentration 1 mg./ml.
# Description: as §1, §2
# Serratia marcescens = experiment: Disc plate assay, zone of inhibition; type: cell-based; settings: concentration 1 mg./ml.
# Description: as §1, §2
# Salmonella typhi = experiment: Agar dilution method, MIC
# [6] = tested on: Bacillus stearothyermophilus; experiment: Disc plate assay, zone of inhibition; type: cell-based; settings: for zone of inhibition at 3000 µg/mL: read-out: Zone of Inhibition (mm. diam.)
# Staphylococcus aureus [7] = experiment: Disc plate assay, zone of inhibition; type: cell-based; settings: for zone of inhibition at 3000 µg/mL: read-out: Zone of Inhibition (mm. diam.)
# Micrococcus luteus = experiment: Disc plate assay, zone of inhibition; type: cell-based; settings: for zone of inhibition at 3000 µg/mL: read-out: Zone of Inhibition (mm. diam.)
# Escherichia coli [8] = experiment: Agar dilution method, MIC; type: cell-based
# Proteus = experiment: Agar dilution method, MIC; type: cell-based; settings: strains of Proteus
# Haemophilus influenzae = experiment: Agar dilution method, MIC; type: cell-based
# Serratia = experiment: Agar dilution method, MIC; type: cell-based; settings: strains of Serratia
smiles,measurement,setting,value
[N-]=[N+]=NC1=C(C(=O)O)N2C(=O)[C@@H](NC(=O)Cc3cccs3)[C@H]2SC1 [7β-(2-Thienylacetamido)-3-azido-3-cephem-4-carboxylic acid],zone of inhibition at 1000 µg/mL,"Proteus vulgaris; Proteus vulgaris, concentration 1 mg./ml.",25 mm
same,MIC,"Streptococcus sp. D; Streptococcus, strain X66, read-out: MIC",128 µg/mL
same,MIC,Streptococcus sp. D; strain 2041,128 µg/mL
same,MIC,Klebsiella pneumoniae,128 µg/mL
same,MIC,"Klebsiella pneumoniae; strain X26, read-out: MIC",4 µg/mL
same,MIC,"Klebsiella pneumoniae; strain X68, read-out: MIC",16 µg/mL
same,MIC,"Enterobacter aerogenes; Klebsiella aerogenes, strain C32, read-out: MIC",128 µg/mL
same,MIC,Enterobacter aerogenes; strain EB17,128 µg/mL
same,zone of inhibition at 1000 µg/mL,Pseudomonas solanacearum,29 mm
same,MIC,Pseudomonas,≥ 128 µg/mL
same,MIC,Staphylococcus aureus [1]; strain S13E,64 µg/mL
same,MIC,"Staphylococcus aureus [1]; strain V41, read-out: MIC",64 µg/mL
same,MIC,"Staphylococcus aureus [1]; strain X1.1, read-out: MIC",8 µg/mL
same,MIC,"Staphylococcus aureus [1]; strain X400, read-out: MIC",128 µg/mL
same,zone of inhibition at 1000 µg/mL,"Bacillus subtilis; Bacillus subtilis, concentration 1 mg./ml.",30 mm
same,detectable zone of inhibition,[2]; concentration 1 mg./ml.,failed to produce a detectable zone of inhibition
same,detectable zone of inhibition,Candida albicans; concentration 1 mg./ml.,failed to produce a detectable zone of inhibition
same,MIC,Streptococcus pyogenes,0.5 µg/mL
same,MIC,Streptococcus pneumoniae,0.25 µg/mL
same,MIC,"Enterobacter cloacae; Enterobacter cloacae, strain EB5, read-out: MIC",128 µg/mL
same,MIC,Enterobacter cloacae; strain 265A,128 µg/mL
same,zone of inhibition at 1000 µg/mL,"Escherichia coli [3]; Escherichia coli, concentration 1 mg./ml.",21 mm
same,MIC,[4]; strain 222,4 µg/mL
same,MIC,[4]; strain EP11,16 µg/mL
same,detectable zone of inhibition,Pseudomonas aeruginosa,failed to produce a detectable zone of inhibition
same,zone of inhibition at 1000 µg/mL,Salmonella gallinarum,19 mm
same,detectable zone of inhibition,[5],failed to produce a detectable zone of inhibition
same,detectable zone of inhibition,Serratia marcescens,failed to produce a detectable zone of inhibition
same,MIC,"Salmonella typhi; Salmonella enterica, TYPHI",16 µg/mL
same,MIC,Salmonella typhi; strain 1335,16 µg/mL
same,zone of inhibition at 1000 µg/mL,"[6]; Bacillus, concentration 1 mg./ml.",20 mm
same,zone of inhibition at 1000 µg/mL,"Staphylococcus aureus [7]; Staphylococcus aureus, concentration 1 mg./ml.",30 mm
same,zone of inhibition at 1000 µg/mL,"Micrococcus luteus; Micrococcus luteus, concentration 1 mg./ml.",23 mm
same,MIC,Escherichia coli [8],128 µg/mL
same,MIC,"Escherichia coli [8]; strain EC14, read-out: MIC",16 µg/mL
same,MIC,"Escherichia coli [8]; strain N10, read-out: MIC",64 µg/mL
same,MIC,Proteus,≥ 128 µg/mL
same,MIC,Haemophilus influenzae; strain 76,4 µg/mL
same,MIC,Haemophilus influenzae; strain C.L.,16 µg/mL
same,MIC,Serratia,≥ 128 µg/mL
"COC1=N[C@@H](C(=O)[O-])N2C(=O)[C@H](NC(=O)Cc3cccs3)[C@@H]2SC1.[Na+] [Compound A, [2R-(2α,7α,8β)],-4-Methoxy-9-oxo-8-[(2-thienylacetyl)-amino]-6-thia-1,3-diazabicyclo[5.2.0]non-3-ene-2-carboxylic acid sodium salt]",Zone of Inhibition (mm. diam.),Bacillus subtilis; Concentration: 3 mg./ml.,15 mm
same,Zone of Inhibition (mm. diam.),[2]; Concentration: 3 mg./ml.,tr.
same,Zone of Inhibition (mm. diam.),Escherichia coli [3]; Concentration: 3 mg./ml.,12 mm
same,Zone of Inhibition (mm. diam.),[6]; Concentration: 3 mg./ml.,11 mm
same,Zone of Inhibition (mm. diam.),Staphylococcus aureus [7]; Concentration: 3 mg./ml.,18 mm
same,Zone of Inhibition (mm. diam.),Micrococcus luteus; Concentration: 3 mg./ml.,10 mm
"COC1=NCS[C@@H]2[C@H](NC(=O)Cc3cccs3)C(=O)N2[C@H]1C(=O)O [Compound B, [2R-(2α,7α,8β)],-3-Methoxy-9-oxo-8-[(2-thienylacetyl)-amino]-6-thia-1,4-diaza[5.2.0]non-3-ene-2-carboxylic acid sodium salt]",zone of inhibition at 3000 µg/mL,Pseudomonas solanacearum,12 mm
same,zone of inhibition at 3000 µg/mL,"Bacillus subtilis; Bacillus subtilis, Concentration: 3 mg./ml.",27 mm
same,zone of inhibition at 3000 µg/mL,"Candida albicans; Candida albicans, Concentration: 3 mg./ml., read-out: Zone of Inhibition (mm. diam.)",13 mm
same,zone of inhibition at 3000 µg/mL,"Escherichia coli [3]; Escherichia coli, Concentration: 3 mg./ml.",25 mm
same,zone of inhibition at 3000 µg/mL,"[6]; Bacillus, Concentration: 3 mg./ml.",34 mm
same,zone of inhibition at 3000 µg/mL,"Staphylococcus aureus [7]; Staphylococcus aureus, Concentration: 3 mg./ml.",29 mm
same,zone of inhibition at 3000 µg/mL,"Micrococcus luteus; Micrococcus luteus, Concentration: 3 mg./ml.",25 mm
"COC1S[C@@H]2[C@H](NC(=O)Cc3cccs3)C(=O)N2C(C(=O)[O-])=C1N.[Na+] (stereo partly drawn) [Compound C, Sodium 7β-[(2-thienylacetyl)amino]-2-methoxy-3-amino-3-cephem-4-carboxylate]",Zone of Inhibition (mm. diam.),Proteus vulgaris; Concentration: 3 mg./ml.,tr.
same,zone of inhibition at 3000 µg/mL,Pseudomonas solanacearum,11 mm
same,zone of inhibition at 3000 µg/mL,Bacillus subtilis; Bacillus subtilis,30 mm
same,zone of inhibition at 3000 µg/mL,Escherichia coli [3]; Escherichia coli,30 mm
same,zone of inhibition at 3000 µg/mL,[6]; Bacillus,36 mm
same,zone of inhibition at 3000 µg/mL,Staphylococcus aureus [7]; Staphylococcus aureus,29 mm
same,zone of inhibition at 3000 µg/mL,Micrococcus luteus; Micrococcus luteus,24 mm
